The text below walks through data of patent publication US20260151486A1, “PRESSURIZED NANOEMULSION” (BIOFRONTERA BIOSCIENCE GMBH, priority 2023, published 2026).

Structures are written as SMILES.

The nature of data set [1]: TC content over storage time in nanoemulsion formulation. Type of data set: physicochemical. The note with it: in BF220 with PX=4%, 0.1% TC. The procedure: Nanoemulsion formulations BF220 TC=0.1% glass and BF220 TC=0.1% foam were prepared as described in Example 6. The nanoemulsion formulations were stored at 2-8° C. and 25° C. The content of TC was determined at 0 (starting point) and various time points up to 48 months storage period.

The conditions of data set [2]: room temperature; cited from earlier work.
Data set [3] can be described thus: ALA content over storage time in nanoemulsion formulation. The settings on record: in BF200 with PX=2%, 3% 5-ALA; after 36 months storage at 2-25° C. Type of data set: physicochemical. The procedure:
Nanoemulsion formulations BF200 PX=2% glass and BF200 PX=2% foam were prepared as described in Example 5. The nanoemulsion formulations were stored at 25° C. and 2-8° C. The content of ALA was determined at 0 (starting point) and various time points during the 36 months storage period.

For the compound `C=CC[C@@H]1/C=C(\C)C[C@H](C)C[C@H](OC)[C@H]2O[C@@](O)(C(=O)C(=O)N3CCCC[C@H]3C(=O)O[C@H](/C(C)=C/[C@@H]3CC[C@@H](O)[C@H](OC)C3)[C@H](C)[C@@H](O)CC1=O)[C@H](C)C[C@@H]2OC` [TC, Tacrolimus], the TC content result in data set [1] (after 6 months at 25° C.) and in data set [1] (after 48 months storage at 2-8° C.) was “at least 95%” each time. Also, in data set [2], the “stability in aqueous formulations” value is on record as “approx. 90 days”.
Take `NCC(=O)CCC(=O)O` [ALA, 5-aminolevulinic acid]: the ALA content result in data set [3] is “at least 90%”.
